# Data reported in PubChem BioAssay (NCI).
#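 96-well plates; 48 h exposure; 5 concentrations. Endpoints by linear interpolation between flanking doses. Not reached: highest tested concentration assigned. GI50: concentration for 50% inhibition of growth. The concentration for full growth arrest is given as TGI.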
# Assays:
# Assay in all cases: NCI-60 cell line screen, 48 h
# 786-0 renal = tested on: 786-0 renal
# A498 renal = tested on: A498 renal
# A549 NSCLC = tested on: A549 NSCLC
# ACHN renal = tested on: ACHN renal
# BT-549 breast = tested on: BT-549 breast
# CAKI-1 renal = tested on: CAKI-1 renal
# CCRF-CEM leukemia = tested on: CCRF-CEM leukemia
# COLO 205 colon = tested on: COLO 205 colon
# DU-145 prostate = tested on: DU-145 prostate
# EKVX NSCLC = tested on: EKVX NSCLC
# HCC-2998 colon = tested on: HCC-2998 colon
# HCT-116 colon = tested on: HCT-116 colon
# HCT-15 colon = tested on: HCT-15 colon
# HL-60(TB) leukemia = tested on: HL-60(TB) leukemia
# HOP-62 NSCLC = tested on: HOP-62 NSCLC
# HS 578T breast = tested on: HS 578T breast
# HT29 colon = tested on: HT29 colon
# IGROV1 ovarian = tested on: IGROV1 ovarian
# K-562 leukemia = tested on: K-562 leukemia
# KM12 colon = tested on: KM12 colon
# LOX IMVI melanoma = tested on: LOX IMVI melanoma
# M14 melanoma = tested on: M14 melanoma
# MALME-3M melanoma = tested on: MALME-3M melanoma
# MCF7 breast = tested on: MCF7 breast
# MDA-MB-231 breast = tested on: MDA-MB-231 breast
# MDA-MB-435 = tested on: MDA-MB-435
# MOLT-4 leukemia = tested on: MOLT-4 leukemia
# NCI-H226 lung = tested on: NCI-H226 lung
# NCI-H23 lung = tested on: NCI-H23 lung
# NCI-H460 lung = tested on: NCI-H460 lung
# NCI-H522 lung = tested on: NCI-H522 lung
# NCI/ADR-RES ovarian = tested on: NCI/ADR-RES ovarian
# OVCAR-3 ovarian = tested on: OVCAR-3 ovarian
# OVCAR-4 ovarian = tested on: OVCAR-4 ovarian
# OVCAR-5 ovarian = tested on: OVCAR-5 ovarian
# OVCAR-8 ovarian = tested on: OVCAR-8 ovarian
# PC-3 prostate = tested on: PC-3 prostate
# RPMI-8226 leukemia = tested on: RPMI-8226 leukemia
# RXF 393 renal = tested on: RXF 393 renal
# SF-268 CNS = tested on: SF-268 CNS
# SF-295 CNS = tested on: SF-295 CNS
# SF-539 CNS = tested on: SF-539 CNS
# SK-MEL-2 melanoma = tested on: SK-MEL-2 melanoma
# SK-MEL-28 melanoma = tested on: SK-MEL-28 melanoma
# SK-MEL-5 melanoma = tested on: SK-MEL-5 melanoma
# SK-OV-3 ovarian = tested on: SK-OV-3 ovarian
# SN12C renal = tested on: SN12C renal
# SNB-19 CNS = tested on: SNB-19 CNS
# SNB-75 CNS = tested on: SNB-75 CNS
# SR leukemia = tested on: SR leukemia
# SW-620 colon = tested on: SW-620 colon
# T-47D breast = tested on: T-47D breast
# TK-10 renal = tested on: TK-10 renal
# U251 CNS = tested on: U251 CNS
# UACC-257 melanoma = tested on: UACC-257 melanoma
# UACC-62 melanoma = tested on: UACC-62 melanoma
# UO-31 renal = tested on: UO-31 renal
smiles,measurement,setting,value
O=C1OCC2=C1C(c1cccc(Br)c1)c1cc3c(cc1N2CCO)OCCO3 (stereo not drawn),GI50,786-0 renal,69.5 nM
same,TGI,786-0 renal,3660 nM
same,GI50,A498 renal,16.7 nM
same,TGI,A498 renal,466 nM
same,GI50,A549 NSCLC,131 nM
same,TGI,A549 NSCLC,5970 nM
same,GI50,ACHN renal,103 nM
same,TGI,ACHN renal,> 34000 nM
same,GI50,BT-549 breast,136 nM
same,TGI,BT-549 breast,6350 nM
same,GI50,CAKI-1 renal,52.2 nM
same,TGI,CAKI-1 renal,7540 nM
same,GI50,CCRF-CEM leukemia,76.3 nM
same,TGI,CCRF-CEM leukemia,> 26300 nM
same,GI50,COLO 205 colon,79 nM
same,TGI,COLO 205 colon,371 nM
same,GI50,DU-145 prostate,107 nM
same,TGI,DU-145 prostate,752 nM
same,GI50,EKVX NSCLC,1300 nM
same,TGI,EKVX NSCLC,48700 nM
same,GI50,HCC-2998 colon,92.7 nM
same,TGI,HCC-2998 colon,1710 nM
same,GI50,HCT-116 colon,59.5 nM
same,TGI,HCT-116 colon,2070 nM
same,GI50,HCT-15 colon,76.6 nM
same,TGI,HCT-15 colon,> 50000 nM
same,GI50,HL-60(TB) leukemia,45.2 nM
same,TGI,HL-60(TB) leukemia,362 nM
same,GI50,HOP-62 NSCLC,89.1 nM
same,TGI,HOP-62 NSCLC,18700 nM
same,GI50,HS 578T breast,71.5 nM
same,TGI,HS 578T breast,> 21300 nM
same,GI50,HT29 colon,50.7 nM
same,TGI,HT29 colon,233 nM
same,GI50,IGROV1 ovarian,117 nM
same,TGI,IGROV1 ovarian,> 43800 nM
same,GI50,K-562 leukemia,55 nM
same,TGI,K-562 leukemia,> 27700 nM
same,GI50,KM12 colon,44.2 nM
same,TGI,KM12 colon,2310 nM
same,GI50,LOX IMVI melanoma,107 nM
same,TGI,LOX IMVI melanoma,9280 nM
same,GI50,M14 melanoma,42.1 nM
same,TGI,M14 melanoma,453 nM
same,GI50,MALME-3M melanoma,28.8 nM
same,TGI,MALME-3M melanoma,20800 nM
same,GI50,MCF7 breast,103 nM
same,TGI,MCF7 breast,> 50000 nM
same,GI50,MDA-MB-231 breast,209 nM
same,TGI,MDA-MB-231 breast,2850 nM
same,TGI,MDA-MB-435,24.1 nM
same,GI50,MOLT-4 leukemia,225 nM
same,TGI,MOLT-4 leukemia,> 42200 nM
same,GI50,NCI-H226 lung,72 nM
same,TGI,NCI-H226 lung,738 nM
same,GI50,NCI-H23 lung,91.1 nM
same,TGI,NCI-H23 lung,> 44500 nM
same,GI50,NCI-H460 lung,58.8 nM
same,TGI,NCI-H460 lung,2210 nM
same,GI50,NCI-H522 lung,11.6 nM
same,TGI,NCI-H522 lung,47.8 nM
same,GI50,NCI/ADR-RES ovarian,63.5 nM
same,TGI,NCI/ADR-RES ovarian,273 nM
same,GI50,OVCAR-3 ovarian,34.5 nM
same,TGI,OVCAR-3 ovarian,96.7 nM
same,GI50,OVCAR-4 ovarian,131 nM
same,TGI,OVCAR-4 ovarian,> 50000 nM
same,GI50,OVCAR-5 ovarian,221 nM
same,TGI,OVCAR-5 ovarian,> 33700 nM
same,GI50,OVCAR-8 ovarian,120 nM
same,TGI,OVCAR-8 ovarian,1540 nM
same,GI50,PC-3 prostate,54.6 nM
same,TGI,PC-3 prostate,8740 nM
same,GI50,RPMI-8226 leukemia,71.4 nM
same,TGI,RPMI-8226 leukemia,14000 nM
same,GI50,RXF 393 renal,12 nM
same,TGI,RXF 393 renal,36.1 nM
same,GI50,SF-268 CNS,76.6 nM
same,TGI,SF-268 CNS,8380 nM
same,GI50,SF-295 CNS,18.4 nM
same,TGI,SF-295 CNS,417 nM
same,GI50,SF-539 CNS,51 nM
same,TGI,SF-539 CNS,460 nM
same,GI50,SK-MEL-2 melanoma,42.6 nM
same,TGI,SK-MEL-2 melanoma,1290 nM
same,GI50,SK-MEL-28 melanoma,88.4 nM
same,TGI,SK-MEL-28 melanoma,> 50000 nM
same,GI50,SK-MEL-5 melanoma,34.8 nM
same,TGI,SK-MEL-5 melanoma,252 nM
same,GI50,SK-OV-3 ovarian,67 nM
same,TGI,SK-OV-3 ovarian,4040 nM
same,GI50,SN12C renal,188 nM
same,TGI,SN12C renal,> 27100 nM
same,GI50,SNB-19 CNS,84.6 nM
same,TGI,SNB-19 CNS,> 50000 nM
same,GI50,SNB-75 CNS,39.7 nM
same,TGI,SNB-75 CNS,> 35400 nM
same,GI50,SR leukemia,127 nM
same,TGI,SR leukemia,31000 nM
same,GI50,SW-620 colon,52.7 nM
same,TGI,SW-620 colon,> 27900 nM
same,GI50,T-47D breast,379 nM
same,TGI,T-47D breast,> 41300 nM
same,GI50,TK-10 renal,101 nM
same,TGI,TK-10 renal,16900 nM
same,GI50,U251 CNS,59.6 nM
same,TGI,U251 CNS,6070 nM
same,GI50,UACC-257 melanoma,26.1 nM
same,TGI,UACC-257 melanoma,15300 nM
same,GI50,UACC-62 melanoma,22 nM
same,TGI,UACC-62 melanoma,> 23700 nM
same,GI50,UO-31 renal,127 nM
same,TGI,UO-31 renal,36500 nM
